In the supplement of paper PMC10307832:

Experiments:
Experiment in all cases: relative viability (nuclei count vs DMSO), 5 days (fraction); higher = more cells survive
201T = test system: 201T
Method in brief: (§1)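 Nuclei were stained with Hoechst during a one-step fixation (final 0.05% Triton X-100, 1% formaldehyde, 1 ug/ml Hoechst) carried out 5 days after dosing, then counted on 4× images. The cells, lung cancer lines in 1536-well plates, had been dosed by pin tool the day after seeding with one drug alone or a fixed anchor-drug dose plus five library-drug doses (not always all listed) in √10 steps. Relative viability is the nuclei count in treated wells divided by that in vehicle wells, and each value is the median of duplicate plates.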

CAL-12T = test system: CAL-12T
Method in brief: as §1

COR-L 105 = test system: COR-L 105
Method in brief: as §1

H3255 = test system: H3255
Method in brief: as §1

HARA = test system: HARA
Method in brief: as §1

HCC-15 = test system: HCC-15
Method in brief: as §1

HCC-827 = test system: HCC-827
Method in brief: as §1

LCLC-97TM1 = test system: LCLC-97TM1
Method in brief: as §1

LU99A = test system: LU99A
Method in brief: as §1

NCI-H1395 = test system: NCI-H1395
Method in brief: as §1

NCI-H1651 = test system: NCI-H1651
Method in brief: as §1

NCI-H1792 = test system: NCI-H1792
Method in brief: as §1

NCI-H2009 = test system: NCI-H2009
Method in brief: as §1

NCI-H2087 = test system: NCI-H2087
Method in brief: as §1

NCI-H2170 = test system: NCI-H2170
Method in brief: as §1

NCI-H2228 = test system: NCI-H2228
Method in brief: as §1

NCI-H23 = test system: NCI-H23
Method in brief: as §1

NCI-H2405 = test system: NCI-H2405
Method in brief: as §1

NCI-H650 = test system: NCI-H650
Method in brief: as §1

NCI-H661 = test system: NCI-H661
Method in brief: as §1

PC-3 [JPC-3] = test system: PC-3 [JPC-3]
Method in brief: as §1

SK-MES-1 = test system: SK-MES-1
Method in brief: as §1

UMC-11 = test system: UMC-11
Method in brief: as §1

SMILES: Oc1nc(-c2ccc(C(F)(F)F)cc2)nc2c1CSCC2 [XAV939] + O=C(c1cc(Cc2n[nH]c(=O)c3ccccc23)ccc1F)N1CCN(C(=O)C2CC2)CC1 [Olaparib] (partner 8 µM)
- relative viability (201T; first compound 0.08 µM): 0.855
- relative viability (201T; first compound 0.253 µM): 0.814
- relative viability (201T; first compound 0.8 µM): 0.687
- relative viability (201T; first compound 2.53 µM): 0.745
- relative viability (CAL-12T; first compound 0.08 µM): 0.788
- relative viability (CAL-12T; first compound 0.253 µM): 0.699
- relative viability (CAL-12T; first compound 0.8 µM): 0.689
- relative viability (CAL-12T; first compound 2.53 µM): 0.654
- relative viability (COR-L 105; first compound 0.08 µM): 0.57
- relative viability (COR-L 105; first compound 0.253 µM): 0.486
- relative viability (COR-L 105; first compound 0.8 µM): 0.494
- relative viability (COR-L 105; first compound 2.53 µM): 0.561
- relative viability (H3255; first compound 0.08 µM): 0.598
- relative viability (H3255; first compound 0.253 µM): 0.563
- relative viability (H3255; first compound 0.8 µM): 0.553
- relative viability (H3255; first compound 2.53 µM): 0.51
- relative viability (HARA; first compound 0.08 µM): 0.832
- relative viability (HARA; first compound 0.253 µM): 0.862
- relative viability (HARA; first compound 0.8 µM): 0.759
- relative viability (HARA; first compound 2.53 µM): 0.661
- relative viability (HCC-15; first compound 0.08 µM): 0.693
- relative viability (HCC-15; first compound 0.253 µM): 0.717
- relative viability (HCC-15; first compound 0.8 µM): 0.67
- relative viability (HCC-15; first compound 2.53 µM): 0.676
- relative viability (HCC-827; first compound 0.08 µM): 0.622
- relative viability (HCC-827; first compound 0.253 µM): 0.667
- relative viability (HCC-827; first compound 0.8 µM): 0.62
- relative viability (HCC-827; first compound 2.53 µM): 0.769
- relative viability (LCLC-97TM1; first compound 0.08 µM): 0.326
- relative viability (LCLC-97TM1; first compound 0.253 µM): 0.425
- relative viability (LCLC-97TM1; first compound 2.53 µM): 0.279
- relative viability (LU99A; first compound 0.08 µM): 0.258
- relative viability (LU99A; first compound 0.253 µM): 0.257
- relative viability (LU99A; first compound 0.8 µM): 0.271
- relative viability (LU99A; first compound 2.53 µM): 0.258
- relative viability (NCI-H1395; first compound 0.08 µM): 0.47
- relative viability (NCI-H1395; first compound 0.253 µM): 0.449
- relative viability (NCI-H1395; first compound 0.8 µM): 0.478
- relative viability (NCI-H1395; first compound 2.53 µM): 0.425
- relative viability (NCI-H1651; first compound 0.08 µM): 0.181
- relative viability (NCI-H1651; first compound 0.253 µM): 0.19
- relative viability (NCI-H1651; first compound 0.8 µM): 0.205
- relative viability (NCI-H1651; first compound 2.53 µM): 0.196
- relative viability (NCI-H1792; first compound 0.08 µM): 0.602
- relative viability (NCI-H1792; first compound 0.253 µM): 0.379
- relative viability (NCI-H1792; first compound 0.8 µM): 0.398
- relative viability (NCI-H1792; first compound 2.53 µM): 0.268
- relative viability (NCI-H2009; first compound 0.08 µM): 0.918
- relative viability (NCI-H2009; first compound 0.253 µM): 0.728
- relative viability (NCI-H2009; first compound 0.8 µM): 0.641
- relative viability (NCI-H2009; first compound 2.53 µM): 0.754
- relative viability (NCI-H2087; first compound 0.08 µM): 0.625
- relative viability (NCI-H2087; first compound 0.253 µM): 0.533
- relative viability (NCI-H2087; first compound 0.8 µM): 0.665
- relative viability (NCI-H2087; first compound 2.53 µM): 0.464
- relative viability (NCI-H2170; first compound 0.08 µM): 0.56
- relative viability (NCI-H2170; first compound 0.253 µM): 0.451
- relative viability (NCI-H2170; first compound 0.8 µM): 0.5
- relative viability (NCI-H2170; first compound 2.53 µM): 0.402
- relative viability (NCI-H2228; first compound 0.08 µM): 0.945
- relative viability (NCI-H2228; first compound 0.253 µM): 0.562
- relative viability (NCI-H2228; first compound 0.8 µM): 0.65
- relative viability (NCI-H2228; first compound 2.53 µM): 0.608
- relative viability (NCI-H23; first compound 0.08 µM): 0.323
- relative viability (NCI-H23; first compound 0.8 µM): 0.278
- relative viability (NCI-H23; first compound 2.53 µM): 0.264
- relative viability (NCI-H2405; first compound 0.08 µM): 0.974
- relative viability (NCI-H2405; first compound 0.253 µM): 0.824
- relative viability (NCI-H2405; first compound 0.8 µM): 0.797
- relative viability (NCI-H2405; first compound 2.53 µM): 0.766
- relative viability (NCI-H650; first compound 0.08 µM): 0.413
- relative viability (NCI-H650; first compound 0.253 µM): 0.426
- relative viability (NCI-H650; first compound 0.8 µM): 0.47
- relative viability (NCI-H650; first compound 2.53 µM): 0.372
- relative viability (NCI-H661; first compound 0.08 µM): 0.743
- relative viability (NCI-H661; first compound 0.253 µM): 0.655
- relative viability (NCI-H661; first compound 0.8 µM): 0.678
- relative viability (NCI-H661; first compound 2.53 µM): 0.708
- relative viability (PC-3 [JPC-3]; first compound 0.253 µM): 0.997
- relative viability (PC-3 [JPC-3]; first compound 0.8 µM): 1.17
- relative viability (PC-3 [JPC-3]; first compound 2.53 µM): 1.06
- relative viability (SK-MES-1; first compound 0.08 µM): 0.664
- relative viability (SK-MES-1; first compound 0.253 µM): 0.605
- relative viability (SK-MES-1; first compound 0.8 µM): 0.621
- relative viability (SK-MES-1; first compound 2.53 µM): 0.465
- relative viability (UMC-11; first compound 0.08 µM): 0.488
- relative viability (UMC-11; first compound 0.253 µM): 0.327
- relative viability (UMC-11; first compound 0.8 µM): 0.327
- relative viability (UMC-11; first compound 2.53 µM): 0.274
